Test results published in ChEMBL document CHEMBL2390956, “Design, synthesis and evaluation of flavonoid derivatives as potential multifunctional acetylcholinesterase inhibitors against Alzheimer's disease” (Bioorg Med Chem Lett, 2013).
Activity calls are given as the source filed them. The calls are words filed in the database; no cut-off is given here.

Assays:
[1] = biological target: Cholinesterase (Equus caballus, UniProt P81908)
Description: Inhibition of equine serum BuChE using S-butyrylthiocholine iodide as substrate incubated for 6 mins prior to substrate addition measured after 60 to 180 secs by Ellman's method

[2] = biological target: Acetylcholinesterase (Electrophorus electricus, UniProt O42275)
Description: Inhibition of electric eel AChE using acetylthiocholine iodide as substrate incubated for 6 mins prior to substrate addition measured after 60 to 180 secs by Ellman's method

[3] = biological target: Amyloid-beta precursor protein (Homo sapiens) (UniProt P05067); test: Inhibition of amyloid beta (1 to 42) (unknown origin) aggregation at 20 uM by thioflavin T based fluorometric assay
[4] = Metal chelating activity of the compound assessed as formation of iron complex at 35 uM by UV-vis spectrometry; type: functional
[5] = biological target: Acetylcholinesterase (Electrophorus electricus) (UniProt O42275); test: Ratio of tacrine IC50 to compound IC50 for electric eel AChE
[6] = biological target: Acetylcholinesterase (Homo sapiens) (UniProt P22303); test: Mixed inhibition of AChE (unknown origin) using ATC as substrate assessed as acetylcholine hydrolysis incubated 15 mins prior to substrate addition by Lineweaver-Burk plot analysis
[7] = biological target: Acetylcholinesterase (Electrophorus electricus) (UniProt O42275); test: Ratio of galanthamine IC50 to compound IC50 for electric eel AChE
[8] = Metal chelating activity of the compound assessed as formation of copper complex at 35 uM by UV-vis spectrometry; type: functional

Chain of Amyloid-beta precursor protein (Homo sapiens) (P05067 whole entry): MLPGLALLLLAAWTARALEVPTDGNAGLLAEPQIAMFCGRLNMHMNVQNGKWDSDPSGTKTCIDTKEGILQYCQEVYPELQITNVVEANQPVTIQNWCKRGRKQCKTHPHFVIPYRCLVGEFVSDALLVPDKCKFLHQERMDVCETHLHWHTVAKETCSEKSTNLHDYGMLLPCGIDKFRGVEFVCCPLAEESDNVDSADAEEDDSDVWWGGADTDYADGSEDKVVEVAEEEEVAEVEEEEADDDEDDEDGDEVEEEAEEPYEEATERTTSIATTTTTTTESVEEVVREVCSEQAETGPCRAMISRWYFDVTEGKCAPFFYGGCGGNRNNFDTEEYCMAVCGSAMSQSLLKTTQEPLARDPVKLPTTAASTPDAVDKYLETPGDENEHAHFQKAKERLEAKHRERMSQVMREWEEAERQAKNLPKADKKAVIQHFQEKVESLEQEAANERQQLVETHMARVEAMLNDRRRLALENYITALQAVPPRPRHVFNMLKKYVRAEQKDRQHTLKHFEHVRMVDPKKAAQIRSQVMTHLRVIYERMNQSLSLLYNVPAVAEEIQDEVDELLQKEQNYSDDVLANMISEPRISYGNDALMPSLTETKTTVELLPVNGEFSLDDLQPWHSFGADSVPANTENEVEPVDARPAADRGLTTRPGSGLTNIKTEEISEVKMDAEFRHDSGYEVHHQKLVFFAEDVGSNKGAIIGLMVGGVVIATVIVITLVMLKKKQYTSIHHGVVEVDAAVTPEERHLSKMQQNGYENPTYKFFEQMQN
Chain of Cholinesterase (P81908 whole entry): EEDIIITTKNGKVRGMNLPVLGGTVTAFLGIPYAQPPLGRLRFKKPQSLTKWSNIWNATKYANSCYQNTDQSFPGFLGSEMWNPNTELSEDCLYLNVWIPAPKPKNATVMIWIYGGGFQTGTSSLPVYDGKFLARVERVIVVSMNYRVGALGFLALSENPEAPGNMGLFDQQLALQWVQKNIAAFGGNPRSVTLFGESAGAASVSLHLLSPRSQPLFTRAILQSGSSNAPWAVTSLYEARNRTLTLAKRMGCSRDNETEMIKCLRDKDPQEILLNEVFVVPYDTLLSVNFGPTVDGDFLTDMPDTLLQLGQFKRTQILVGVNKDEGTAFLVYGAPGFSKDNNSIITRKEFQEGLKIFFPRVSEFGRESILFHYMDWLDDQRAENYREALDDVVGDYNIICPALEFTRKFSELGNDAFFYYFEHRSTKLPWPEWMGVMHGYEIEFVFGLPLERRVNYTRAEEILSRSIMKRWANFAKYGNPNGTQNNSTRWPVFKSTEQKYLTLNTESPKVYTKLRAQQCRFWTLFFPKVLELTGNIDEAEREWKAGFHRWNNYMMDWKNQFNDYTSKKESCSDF
Chain of Acetylcholinesterase (O42275 whole entry): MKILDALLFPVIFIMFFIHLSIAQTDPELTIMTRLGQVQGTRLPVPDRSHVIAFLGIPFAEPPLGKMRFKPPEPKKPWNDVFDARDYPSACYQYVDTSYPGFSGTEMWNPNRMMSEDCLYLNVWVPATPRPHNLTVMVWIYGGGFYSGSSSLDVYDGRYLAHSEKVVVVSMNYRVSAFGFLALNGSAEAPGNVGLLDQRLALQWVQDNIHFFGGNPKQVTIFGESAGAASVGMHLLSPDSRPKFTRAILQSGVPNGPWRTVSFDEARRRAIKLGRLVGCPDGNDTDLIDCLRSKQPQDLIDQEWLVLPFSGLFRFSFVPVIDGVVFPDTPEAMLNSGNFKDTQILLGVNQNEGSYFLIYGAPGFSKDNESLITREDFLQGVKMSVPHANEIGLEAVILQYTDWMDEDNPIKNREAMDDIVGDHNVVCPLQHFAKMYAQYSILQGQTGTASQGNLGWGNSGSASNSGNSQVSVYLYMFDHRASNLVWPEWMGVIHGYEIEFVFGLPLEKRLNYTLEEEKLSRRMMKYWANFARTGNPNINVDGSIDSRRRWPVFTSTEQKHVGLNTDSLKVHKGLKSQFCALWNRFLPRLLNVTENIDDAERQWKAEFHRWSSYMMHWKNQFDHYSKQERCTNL
Chain of Acetylcholinesterase (Electrophorus electricus) (O42275 24-633 limits assumed): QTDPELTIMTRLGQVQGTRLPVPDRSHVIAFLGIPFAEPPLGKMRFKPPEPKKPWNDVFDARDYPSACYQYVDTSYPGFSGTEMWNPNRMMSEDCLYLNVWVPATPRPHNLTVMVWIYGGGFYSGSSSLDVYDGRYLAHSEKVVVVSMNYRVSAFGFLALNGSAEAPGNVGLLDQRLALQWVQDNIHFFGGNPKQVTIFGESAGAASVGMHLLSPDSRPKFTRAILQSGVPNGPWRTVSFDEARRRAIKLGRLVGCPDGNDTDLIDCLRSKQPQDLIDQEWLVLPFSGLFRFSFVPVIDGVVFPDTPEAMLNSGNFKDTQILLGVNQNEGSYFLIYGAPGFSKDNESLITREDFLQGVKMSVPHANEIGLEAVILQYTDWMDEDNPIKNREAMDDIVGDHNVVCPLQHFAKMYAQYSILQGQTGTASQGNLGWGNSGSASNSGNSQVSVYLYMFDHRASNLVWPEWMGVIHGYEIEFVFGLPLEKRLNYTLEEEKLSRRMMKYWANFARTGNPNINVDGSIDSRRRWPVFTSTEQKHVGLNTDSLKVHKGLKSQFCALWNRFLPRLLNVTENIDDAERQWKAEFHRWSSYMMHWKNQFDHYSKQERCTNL
Chain of Acetylcholinesterase (Homo sapiens) (P22303 whole entry): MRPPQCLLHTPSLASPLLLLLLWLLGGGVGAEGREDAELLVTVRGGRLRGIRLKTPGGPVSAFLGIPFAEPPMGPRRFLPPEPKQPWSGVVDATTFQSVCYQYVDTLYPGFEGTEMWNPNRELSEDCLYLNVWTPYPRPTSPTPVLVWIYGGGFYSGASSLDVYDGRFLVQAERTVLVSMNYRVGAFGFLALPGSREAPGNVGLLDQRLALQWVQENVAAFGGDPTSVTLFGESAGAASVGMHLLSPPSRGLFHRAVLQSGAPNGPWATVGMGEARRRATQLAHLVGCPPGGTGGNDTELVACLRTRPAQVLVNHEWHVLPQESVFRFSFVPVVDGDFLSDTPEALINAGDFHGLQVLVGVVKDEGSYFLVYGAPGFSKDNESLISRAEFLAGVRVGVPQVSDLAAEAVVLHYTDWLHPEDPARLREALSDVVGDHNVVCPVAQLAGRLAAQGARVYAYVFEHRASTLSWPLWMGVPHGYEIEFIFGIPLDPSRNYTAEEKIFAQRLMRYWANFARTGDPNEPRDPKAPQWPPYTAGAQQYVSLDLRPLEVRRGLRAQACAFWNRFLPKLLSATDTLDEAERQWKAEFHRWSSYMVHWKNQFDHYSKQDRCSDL

## Cc1c(OCCCCN(C)C)ccc2c(=O)cc(-c3ccccc3)oc12
[1]
  IC50: > 100000 nM
[2]
  IC50: 328 nM
[3]
  inhibition: 34.3%

## Cc1c(OCCCCCCN2CCCC2)ccc2c(=O)cc(-c3ccccc3)oc12
[1]
  IC50: 3280 nM
[2]
  IC50: 764 nM
[3]
  inhibition: 38.1%

## Cc1c(OCCCCCN2CCCCC2)ccc2c(=O)cc(-c3ccccc3)oc12
[1]
  IC50: 1410 nM
[2]
  IC50: 329 nM
[3]
  inhibition: 41.7%

## Cc1c(OCCN2CCCC2)ccc2c(=O)cc(-c3ccccc3)oc12
[1]
  IC50: 2710 nM
[2]
  IC50: 2040 nM
[3]
  inhibition: 42%

## Cc1c(OCCN2CCC(O)CC2)ccc2c(=O)cc(-c3ccccc3)oc12
[1]
  IC50: 3210 nM
[2]
  IC50: 1830 nM
[3]
  inhibition: 26.9%

## Cc1c(OCCCCN2CCOCC2)ccc2c(=O)cc(-c3ccccc3)oc12
[1]
  IC50: > 100000 nM
[2]
  IC50: 2880 nM
[3]
  inhibition: 20.4%

## Cc1c(OCCCCCCN2CCC(O)CC2)ccc2c(=O)cc(-c3ccccc3)oc12
[1]
  IC50: 3930 nM
[2]
  IC50: 3150 nM
[3]
  inhibition: 39%

## CCN(CC)CCCCOc1ccc2c(=O)cc(-c3ccccc3)oc2c1C
[1]
  IC50: 4820 nM
[4]
  Activity: Active
[2]
  IC50: 130 nM
[3]
  inhibition: 39%
[5]
  Ratio IC50: 2
[6]
  inhibition: Active
[7]
  Ratio IC50: 20
[8]
  Activity: Active

## Cc1c(OCCN2CCCCC2C)ccc2c(=O)cc(-c3ccccc3)oc12 (stereo unspecified)
[1]
  IC50: > 100000 nM
[2]
  IC50: 2100 nM
[3]
  inhibition: 30.5%

## Cc1c(OCCCCCN2CCCCC2C)ccc2c(=O)cc(-c3ccccc3)oc12 (stereo unspecified)
[1]
  IC50: 2770 nM
[2]
  IC50: 216 nM
[3]
  inhibition: 36.7%

## Cc1c(OCCCCN2CCCCC2)ccc2c(=O)cc(-c3ccccc3)oc12
[1]
  IC50: > 100000 nM
[2]
  IC50: 234 nM
[3]
  inhibition: 37.5%

## Cc1c(OCCCCCN2CCOCC2)ccc2c(=O)cc(-c3ccccc3)oc12
[1]
  IC50: > 100000 nM
[2]
  IC50: 8630 nM
[3]
  inhibition: 24.6%

## Cc1c(OCCCCN2CCC(O)CC2)ccc2c(=O)cc(-c3ccccc3)oc12
[1]
  IC50: > 100000 nM
[2]
  IC50: 607 nM
[3]
  inhibition: 22.1%

## Cc1c(OCCCCN2CCCCC2C)ccc2c(=O)cc(-c3ccccc3)oc12 (stereo unspecified)
[1]
  IC50: > 100000 nM
[2]
  IC50: 225 nM
[3]
  inhibition: 37.3%

## Cc1c(O)ccc2c(=O)cc(-c3ccccc3)oc12
[1]
  IC50: > 100000 nM
[2]
  IC50: 87100 nM

## Cc1c(OCCCN2CCCCC2C)ccc2c(=O)cc(-c3ccccc3)oc12 (stereo unspecified)
[1]
  IC50: 5840 nM
[2]
  IC50: 590 nM
[3]
  inhibition: 41.7%

## Cc1c(OCCCCCN2CCCC2)ccc2c(=O)cc(-c3ccccc3)oc12
[1]
  IC50: 1910 nM
[2]
  IC50: 243 nM
[3]
  inhibition: 39.3%

## Cc1c(OCCCN2CCCC2)ccc2c(=O)cc(-c3ccccc3)oc12
[1]
  IC50: 2780 nM
[2]
  IC50: 952 nM
[3]
  inhibition: 27.1%

## COC(=O)[C@@H]1CCCN1CCCCCOc1ccc2c(=O)cc(-c3ccccc3)oc2c1C
[1]
  IC50: 3930 nM
[2]
  IC50: 19600 nM

## CCN(CC)CCCCCOc1ccc2c(=O)cc(-c3ccccc3)oc2c1C
[1]
  IC50: > 100000 nM
[2]
  IC50: 264 nM
[3]
  inhibition: 40.9%

## COC(=O)[C@@H]1CCCN1CCCCOc1ccc2c(=O)cc(-c3ccccc3)oc2c1C
[1]
  IC50: 3820 nM
[2]
  IC50: 25300 nM

## Cc1c(OCCCCN2CCCC2)ccc2c(=O)cc(-c3ccccc3)oc12
[1]
  IC50: 5700 nM
[2]
  IC50: 238 nM
[3]
  inhibition: 21.8%

## Cc1c(OCCCCCN(C)C)ccc2c(=O)cc(-c3ccccc3)oc12
[1]
  IC50: 2540 nM
[2]
  IC50: 210 nM
[3]
  inhibition: 37.9%

## Cc1c(OCCCN2CCC(O)CC2)ccc2c(=O)cc(-c3ccccc3)oc12
[1]
  IC50: 4120 nM
[2]
  IC50: 2940 nM
[3]
  inhibition: 21.4%

## Cc1c(OCCCCCN2CCN(C)CC2)ccc2c(=O)cc(-c3ccccc3)oc12
[1]
  IC50: 4870 nM
[2]
  IC50: 1870 nM
[3]
  inhibition: 39.9%

## Cc1c(OCCCCCN2CCC(O)CC2)ccc2c(=O)cc(-c3ccccc3)oc12
[1]
  IC50: 4850 nM
[2]
  IC50: 604 nM
[3]
  inhibition: 37.4%

## Cc1c(OCCCCN2CCN(C)CC2)ccc2c(=O)cc(-c3ccccc3)oc12
[1]
  IC50: 5750 nM
[2]
  IC50: 1660 nM
[3]
  inhibition: 31.1%

## Cc1c(OCCCCCCN2CCCCC2C)ccc2c(=O)cc(-c3ccccc3)oc12 (stereo unspecified)
[1]
  IC50: 3740 nM
[2]
  IC50: 1890 nM
[3]
  inhibition: 43.2%
